# From patent US8933099B2, “Monocyclic pyridine derivative” (Eisai R&D Management Co., Ltd., priority 2013, dated 2015)
# Columns and labels:
# [1] = tested on: human stomach cancer cell line SNU-16 (FGFR2 gene amplification); test: SNU-16 growth inhibition assay; assay type: cell-based; conditions: Homo sapiens, SNU-16, 72 h, read-out: SNU-16 (IC50 (nM)), cell growth, 3 days, Cell Counting Kit-8
# Protocol: In this assay, the growth inhibitory activity of a test substance in a human stomach cancer cell line harboring FGFR2 gene amplification is measured.
# Then, 10 μL of Cell Counting Kit-8 (Dojindo Laboratories, CK04) was added to each well, and the resultant was incubated for 1 to 2 hours in a 5% CO2 incubator (37° C.) to cause a color reaction. The absorbance value was measured with ENVISION™ (PerkinElmer Co., Ltd.) at 450 nm.
# [2] = tested on: normal human umbilical vein endothelial cells (HUVEC); test: HUVEC growth inhibition assay (VEGF-induced); assay type: cell-based; conditions: Homo sapiens, HUVEC, 72 h, read-out: HUVEC (IC50 (nM)), growth in the presence of VEGF 10 ng/mL, 3 days
# Protocol: The absorbance value was measured with ENVISION™ (PerkinElmer Co., Ltd.) at 450 nm. The absorbance values of the wells without adding the test substance but with VEGF addition was defined as 100% and the absorbance values of the wells with neither the test substance nor VEGF addition was defined as 0%.
Compound,IC50 [1],IC50 [2]
"CCOCCOc1cc2c(ccn2C(=O)NC)cc1Oc1ccnc(NC(=O)c2ccc(C3CCN(CC)CC3)nc2)c1 [Example 28, 6-(2-Ethoxyethoxy)-5-((2-(6-(1-ethylpiperidin-4-yl)nicotinamide)pyridin-4-yl)oxy)-N-methyl-1H-indole-1-carboxamide]",7.3 nM,664 nM
CCOCCOc1cc2c(ccn2C(=O)NC)cc1Oc1ccnc(NC(=O)c2ccc(CN3CCC[C@H]3CO)cc2)c1 [Example 29],8.8 nM,600 nM
CCOCCOc1cc2c(ccn2C(=O)NC)cc1Oc1ccnc(NC(=O)c2ccc(CN3CC[C@@H](O)C3)s2)c1 [Example 31],4.7 nM,186 nM
"CCN1CCC(c2ccc(C(=O)Nc3cc(Oc4cc5ccn(C(=O)NC)c5cc4OCCCF)ccn3)cc2)CC1 [Example 33, 5-((2-(4-(1-Ethylpiperidin-4-yl)benzamide)pyridin-4-yl)oxy)-6-(3-fluoropropoxy)-N-methyl-1H-indole-1-carboxamide]",8.1 nM,274 nM
CNC(=O)n1ccc2cc(Oc3ccnc(NC(=O)c4ccc(CN5CCC[C@@H]5CO)s4)c3)c(OC)cc21 [Example 34],14 nM,195 nM
CNC(=O)n1ccc2cc(Oc3ccnc(NC(=O)c4ccc(CN5CCC[C@H]5CO)s4)c3)c(OC)cc21 [Example 35],9.8 nM,139 nM
CNC(=O)n1ccc2cc(Oc3ccnc(NC(=O)c4ccc(CN5C[C@@H](C)N[C@@H](C)C5)s4)c3)c(OC)cc21 [Example 36],11 nM,136 nM
CCN1CCN(Cc2ccc(C(=O)Nc3cc(Oc4cc5ccn(C(=O)NC)c5cc4OC)ccn3)s2)CC1 [Example 37],9.4 nM,79.1 nM
CNC(=O)n1ccc2cc(Oc3ccnc(NC(=O)c4ccc(CN5CCC(O)CC5)s4)c3)c(OC)cc21 [Example 38],8 nM,137 nM
CNC(=O)n1ccc2cc(Oc3ccnc(NC(=O)c4ccc(C5CCN(CC(C)(C)O)CC5)cc4)c3)c(OC)cc21 [Example 39],7.8 nM,124 nM
CNC(=O)n1ccc2cc(Oc3ccnc(NC(=O)c4ccc(C5CCN(C(C)C)CC5)cc4)c3)c(OC)cc21 [Example 40],8.3 nM,162 nM
CNC(=O)n1ccc2cc(Oc3ccnc(NC(=O)c4ccc(OC5CCN(C[C@@H](C)O)CC5)cc4)c3)c(OC)cc21 [Example 41],9.3 nM,179 nM
CNC(=O)n1ccc2cc(Oc3ccnc(NC(=O)c4ccc(OC5CCN(C[C@H](C)O)CC5)cc4)c3)c(OC)cc21 [Example 42],14.1 nM,184 nM
CCN1CCC(Oc2ccc(C(=O)Nc3cc(Oc4cc5ccn(C(=O)NC)c5cc4OC)ccn3)cc2)CC1 [Example 43],11.8 nM,166 nM
CNC(=O)n1ccc2cc(Oc3ccnc(NC(=O)c4cnn(C5CCN(C[C@@H](C)O)CC5)c4)c3)c(OC)cc21 [Example 44],16.3 nM,392 nM
CNC(=O)n1ccc2cc(Oc3ccnc(NC(=O)c4cnn(C5CCN(C[C@H](C)O)CC5)c4)c3)c(OC)cc21 [Example 45],15.5 nM,379 nM
CNC(=O)n1ccc2cc(Oc3ccnc(NC(=O)c4cnn(C5CCN(C(C)C)CC5)c4)c3)c(OC)cc21 [Example 46],17.4 nM,402 nM
CNC(=O)n1ccc2cc(Oc3ccnc(NC(=O)c4ccc(C5CN(C(C)C)C5)cc4)c3)c(OC)cc21 [Example 47],13.1 nM,174 nM
CNC(=O)n1ccc2cc(Oc3ccnc(NC(=O)c4ccc(C5CN(CC(C)(C)O)C5)cc4)c3)c(OC)cc21 [Example 48],11.7 nM,77.8 nM
CCN1CC(c2ccc(C(=O)Nc3cc(Oc4cc5ccn(C(=O)NC)c5cc4OC)ccn3)cc2)C1 [Example 49],9.6 nM,163 nM
CNC(=O)n1ccc2cc(Oc3ccnc(NC(=O)c4ccc(CN5CCC[C@@H]5CO)cc4)c3)c(OC)cc21 [Example 50],16.6 nM,394 nM
CNC(=O)n1ccc2cc(Oc3ccnc(NC(=O)c4ccc(CN5CCC[C@H]5CO)cc4)c3)c(OC)cc21 [Example 51],12.5 nM,410 nM
CNC(=O)n1ccc2cc(Oc3ccnc(NC(=O)c4ccc(CN5CC[C@H](O)C5)cc4)c3)c(OC)cc21 [Example 52],14.4 nM,388 nM
CNC(=O)n1ccc2cc(Oc3ccnc(NC(=O)c4ccc(CN5CC[C@@H](O)C5)cc4)c3)c(OC)cc21 [Example 53],14.5 nM,401 nM
CNC(=O)n1ccc2cc(Oc3ccnc(NC(=O)c4ccc(C5CCN(C[C@@H](C)O)CC5)cc4)c3)c(OC)cc21 [Example 54],6.4 nM,86.7 nM
CCN1CCN(CCOc2ccc(C(=O)Nc3cc(Oc4cc5ccn(C(=O)NC)c5cc4OC)ccn3)cc2)CC1 [Example 55],20.8 nM,201 nM
CNC(=O)n1ccc2cc(Oc3ccnc(NC(=O)c4ccc(CCN5CCC(O)CC5)cc4)c3)c(OC)cc21 [Example 56],15 nM,96.8 nM

Compound,IC50 [1],IC50 [2]
CNC(=O)n1ccc2cc(Oc3ccnc(NC(=O)c4ccc(C5CCN(C)CC5)cc4)c3)c(OC)cc21 [Example 57],7.6 nM,127 nM
CCOc1cc2c(ccn2C(=O)NC)cc1Oc1ccnc(NC(=O)c2ccc(C3CCN(C(C)C)CC3)cc2)c1 [Example 59],14.5 nM,253 nM
CCOc1cc2c(ccn2C(=O)NC)cc1Oc1ccnc(NC(=O)c2ccc(C3CCN(C[C@@H](C)O)CC3)cc2)c1 [Example 60],14.7 nM,178 nM
CCOc1cc2c(ccn2C(=O)NC)cc1Oc1ccnc(NC(=O)c2ccc(C3CCN(C[C@H](C)O)CC3)cc2)c1 [Example 61],10.7 nM,182 nM
CCOc1cc2c(ccn2C(=O)NC)cc1Oc1ccnc(NC(=O)c2ccc(N3CCC(N4CCCC4)CC3)cc2)c1 [Example 62],27.4 nM,223 nM
CCOc1cc2c(ccn2C(=O)NC)cc1Oc1ccnc(NC(=O)c2ccc(C3CCN(CCO)CC3)cc2)c1 [Example 63],9.6 nM,170 nM
CCOc1cc2c(ccn2C(=O)NC)cc1Oc1ccnc(NC(=O)c2ccc(C3CCN(C)CC3)cc2)c1 [Example 64],10.3 nM,175 nM
CCOc1cc2c(ccn2C(=O)NC)cc1Oc1ccnc(NC(=O)c2ccc(CN3CCC(O)CC3)cc2)c1 [Example 65],23.6 nM,575 nM
CNC(=O)n1ccc2cc(Oc3ccnc(NC(=O)c4ccc(C5CCN(C[C@H](C)O)CC5)cc4)c3)c(OC(C)C)cc21 [Example 66],16.1 nM,203 nM
CNC(=O)n1ccc2cc(Oc3ccnc(NC(=O)c4ccc(C5CCN(CCO)CC5)cc4)c3)c(OC(C)C)cc21 [Example 67],17.6 nM,223 nM
CCN1CCC(c2ccc(C(=O)Nc3cc(Oc4cc5ccn(C(=O)NC)c5cc4OC(C)C)ccn3)cc2)CC1 [Example 68],20 nM,256 nM
CNC(=O)n1ccc2cc(Oc3ccnc(NC(=O)c4ccc(CN5CCC(O)CC5)cc4)c3)c(OC(C)C)cc21 [Example 70],22.4 nM,610 nM
CNC(=O)n1ccc2cc(Oc3ccnc(NC(=O)c4ccc(CN5CC[C@H](O)C5)cc4)c3)c(OCCCF)cc21 [Example 71],17 nM,648 nM
CNC(=O)n1ccc2cc(Oc3ccnc(NC(=O)c4ccc(CN5CC[C@@H](O)C5)cc4)c3)c(OCCCF)cc21 [Example 72],17.1 nM,681 nM
CNC(=O)n1ccc2cc(Oc3ccnc(NC(=O)c4ccc(CN5CCC(O)CC5)cc4)c3)c(OCCCF)cc21 [Example 73],17.4 nM,703 nM
CNC(=O)n1ccc2cc(Oc3ccnc(NC(=O)c4ccc(C5CCN(C[C@@H](C)O)CC5)cc4)c3)c(OCCCF)cc21 [Example 74],8.4 nM,198 nM
CNC(=O)n1ccc2cc(Oc3ccnc(NC(=O)c4ccc(C5CCN(C[C@H](C)O)CC5)cc4)c3)c(OCCCF)cc21 [Example 75],7.3 nM,211 nM
CNC(=O)n1ccc2cc(Oc3ccnc(NC(=O)c4ccc(C5CCN(C)CC5)cc4)c3)c(OCCCF)cc21 [Example 76],7.5 nM,248 nM
CNC(=O)n1ccc2cc(Oc3ccnc(NC(=O)c4ccc(C5CCN(C(C)C)CC5)nc4)c3)c(OCCOC)cc21 [Example 77],9.6 nM,1030 nM
CCN1CCC(c2ccc(C(=O)Nc3cc(Oc4cc5ccn(C(=O)NC)c5cc4OCCOC)ccn3)cn2)CC1 [Example 78],6.2 nM,835 nM
CNC(=O)n1ccc2cc(Oc3ccnc(NC(=O)c4ccc(C5CN(C[C@@H](C)O)C5)cc4)c3)c(OCCOC)cc21 [Example 80],3.8 nM,182 nM
CNC(=O)n1ccc2cc(Oc3ccnc(NC(=O)c4ccc(C5CN(C[C@H](C)O)C5)cc4)c3)c(OCCOC)cc21 [Example 81],3.8 nM,126 nM
CNC(=O)n1ccc2cc(Oc3ccnc(NC(=O)c4ccc(CN5CCC[C@@H]5CO)s4)c3)c(OCCOC)cc21 [Example 82],6.2 nM,264 nM
CNC(=O)n1ccc2cc(Oc3ccnc(NC(=O)c4ccc(CN5CC[C@H](O)C5)s4)c3)c(OCCOC)cc21 [Example 84],6.2 nM,255 nM
CNC(=O)n1ccc2cc(Oc3ccnc(NC(=O)c4ccc(CN5CC[C@@H](O)C5)s4)c3)c(OCCOC)cc21 [Example 85],6.9 nM,235 nM
CNC(=O)n1ccc2cc(Oc3ccnc(NC(=O)c4ccc(CN5CCC(O)CC5)s4)c3)c(OCCOC)cc21 [Example 86],6.2 nM,250 nM
